Structures can show the parent of a compound that is named as a salt. Where two headings read alike, the source gives them in different places.
Tests used:
AB5075 [1] = experiment: Broth microdilution MIC of compound alone (standalone toxicity); format: cell-based, Acinetobacter baumannii
Experimental: (§1) Bacterial Strains and Antimicrobial Agents. Acinetobacter baumannii clinical isolate 5075 was obtained from Dr. Colin Manoil at the University of Washington. Colonies were grown on lysogeny broth (LB) agar. Cation-adjusted Mueller-Hinton Broth (CAMHB) (catalog number 212322) were purchased from BD Diagnostics. LB broth was purchased from Fisher Scientific (catalog number BP9722-2). […] Colistin sulfate salt (catalog number C4461) was purchased from Sigma Aldrich. All assays were completed in duplicate and repeated at least two separate times. All compounds were dissolved as their HCl salts in molecular biology grade DMSO as 10 or 100 mM stock solutions and stored at −20° C. Colistin was dissolved in sterile water while clarithromycin was dissolved in molecular biology grade DMSO.
Broth microdilution method for MIC determination. Day cultures (6 h) of each bacterial strain in cation adjusted Mueller Hinton II broth (CAMHB, Fisher Scientific U.S.) were subcultured to 5×10^5 CFU/mL in CAMHB. Aliquots (1 mL) were placed in culture tubes and compound was added from 10 mM stock samples in DMSO, such that compound concentration equaled highest concentration tested (200 μM). Samples were then aliquoted (200 μL) into the first wells of a 96-well plate, with all remaining wells being filled with 100 μL of initial bacterial subculture. Row one wells were mixed five times, before 100 μL was transferred to row two. Row two was then mixed five times, and 100 μL was transferred to row three. This process was repeated until the final row had been mixed; this served to serially dilute the compound. Plates were then covered with GLAD Press n'Seal and incubated under stationary conditions at 37° C. for 16 h. MIC values were then recorded as the lowest concentration at which no bacterial growth was observed.

AB5075 [2] = experiment: Broth microdilution clarithromycin (CLR) potentiation and dose-response of adjuvant; format: cell-based, Acinetobacter baumannii; details: for adjuvant activity (CLR potentiation), rank by amide linker position: dosed at 30 μM
Experimental: as §1
Broth microdilution method for antibiotic potentiation. Day cultures (6 h) of bacteria in CAMHB were subcultured to 5×10^5 CFU/mL in CAMHB. Aliquots (4 mL) were placed in culture tubes and dosed with compound from 10 mM stock samples to give the desired concentration of the compound to be tested against the particular bacterial strain; this insured non-toxic DMSO concentrations ≤0.3% in each well. 1 mL of the resulting solution was placed in a separate culture and dosed with antibiotic at the highest concentration to be tested. Bacteria treated with antibiotic alone served as the control. Row one of a 96-well plate was filled with 200 μL of the antibiotic/2-AI solution, and rows 2-12 were filled with 100 μL each of the remaining 4 mL of bacterial subculture containing adjuvant at the desired concentration, except for the control lane which contained only bacterial subculture. Row one was then mixed five times, and 100 μL was transferred to row two, which was then mixed five times before being transferred to row three. This process was repeated until all rows had been mixed, except for row twelve which would have only 2-AI to serve as a control to monitor potential toxicity. The 96-well plate was then covered in Glad Press n'Seal and incubated under stationary conditions at 37° C. for 16 h. MIC values were determined as the lowest concentration at which no bacterial growth was observed, and fold reductions were determined by comparison to antibiotic control lane.
Dose-response of Adjuvant Assay. The procedure for ‘broth microdilution method for antibiotic potentiation’ was followed using 4 mL aliquots of adjuvant at various concentrations: 0, 5, 7.5, 10, 15, 20, 25, and 30 μM.

Cl.Nc1nc(-c2ccc(NC(=O)c3ccc(C(F)(F)F)cc3)cc2)c[nH]1 [Compound 4f]
MIC (AB5075 [1]): >200 µM
CLR MIC (AB5075 [2]; compound tested at 30 μM): 32 µg/mL

Cl.Nc1nc(-c2ccc(NC(=O)c3ccc(I)cc3)cc2)c[nH]1 [Compound 4g]
MIC (AB5075 [1]): >200 µM
CLR MIC (AB5075 [2]; compound tested at 30 μM): 16 µg/mL

Cl.Nc1nc(-c2ccc(NC(=O)c3cc(C(F)(F)F)cc(C(F)(F)F)c3)cc2)c[nH]1 [Compound 4l, 4-(2-Amino-3H-imidazol-4-yl)phenyl]-3,5-(bistrifluoromethyl)benzamide hydrochloride]
MIC (AB5075 [1]; Acinetobacter baumannii): 50 µM

Cl.Nc1nc(-c2ccc(NC(=O)c3ccc(Cl)cc3)cc2)c[nH]1 [Compound 4i]
CLR MIC (AB5075 [2]; compound tested at 10 μM): 16 µg/mL
CLR MIC (AB5075 [2]; compound tested at 20 μM): 4 µg/mL

Cl.Nc1nc(-c2ccc(NC(=O)c3ccc(Cl)cc3)cc2)c[nH]1 [Compound 4i, 4-(2-Amino-3H-imidazol-4-yl)phenyl]-4-chlorobenzamide hydrochloride]
MIC (AB5075 [1]; Acinetobacter baumannii): > 200 µM

Cl.Nc1nc(-c2ccc(NC(=O)c3cc(Cl)cc(Cl)c3)c(F)c2)c[nH]1 [Compound 10c, N-(4-(2-amino-1H-imidazol-4-yl)-2-fluorophenyl)-3,5-dichlorobenzamide hydrochloride]
MIC (AB5075 [1]; Acinetobacter baumannii): > 200 µM
CLR MIC (AB5075 [2]; compound tested at 30 μM): 8 µg/mL

Cl.Nc1nc(-c2ccc(NC(=O)c3ccc(Cl)cc3Cl)cc2)c[nH]1 [Compound 4t]
MIC (AB5075 [1]): >200 µM
CLR MIC (AB5075 [2]; compound tested at 30 μM): 4 µg/mL
Fold Reduction of CLR MIC (AB5075 [2]; compound tested at 30 μM): eight-fold

Cl.Nc1nc(-c2ccc(NC(=O)c3cccc(I)c3)cc2)c[nH]1 [Compound 4b]
MIC (AB5075 [1]): >200 µM
CLR MIC (AB5075 [2]; compound tested at 30 μM): 32 µg/mL

Cl.Nc1nc(-c2ccc(NC(=O)c3cc(Cl)cc(Cl)c3)cc2Cl)c[nH]1 [Compound 10e, N-(4-(2-amino-1H-imidazol-4-yl)-3-chlorophenyl)-3,5-dichlorobenzamide hydrochloride]
MIC (AB5075 [1]; Acinetobacter baumannii): > 200 µM
CLR MIC (AB5075 [2]; compound tested at 10 μM): 8 µg/mL
CLR MIC (AB5075 [2]; compound tested at 20 μM): 0.5 µg/mL
Fold Reduction of CLR MIC (AB5075 [2]; compound tested at 20 μM): 64 fold
CLR MIC (AB5075 [2]; compound tested at 30 μM): 0.5 µg/mL
Fold Reduction of CLR MIC (AB5075 [2]; compound tested at 30 μM): 64 fold

Nc1nc(-c2ccc(NC(=O)c3ccccc3)cc2)c[nH]1 [Compound 4a, N-(4-(2-amino-1H-imidazol-4-yl)phenyl)benzamide hydrochloride]
MIC (AB5075 [1]; Acinetobacter baumannii): > 200 µM

Cl.Nc1nc(-c2c(F)cc(NC(=O)c3cc(Cl)cc(Cl)c3)cc2F)c[nH]1 [Compound 13, N-(4-(2-amino-1H-imidazol-4-yl)-3,5-difluorophenyl)-3,5-dichlorobenzamide hydrochloride]
Fold Reduction of CLR MIC (AB5075 [2]; compound tested at 10 μM): two-fold
CLR MIC (AB5075 [2]; compound tested at 20 μM): 8 µg/mL
CLR MIC (AB5075 [2]; compound tested at 30 μM): 4 µg/mL

Nc1nc(-c2ccc(NC(=O)c3ccc(Br)cc3)cc2)c[nH]1 [Compound 4h, N-(4-(2-amino-1H-imidazol-4-yl)phenyl)-4-bromobenzamide hydrochloride]
MIC (AB5075 [1]; Acinetobacter baumannii): > 200 µM

Cl.Nc1nc(-c2ccc(NC(=O)c3cc(Br)cc(Br)c3)cc2F)c[nH]1 [Compound 15a, N-(4-(2-amino-1H-imidazol-4-yl)-3-fluorophenyl)-3,5-dibromobenzamide hydrochloride]
MIC (AB5075 [1]; Acinetobacter baumannii): > 200 µM
MIC (AB5075 [1]; hydrochloride): >200 µM
CLR MIC (AB5075 [2]; compound tested at 10 μM): 16 µg/mL
Fold Reduction of CLR MIC (AB5075 [2]; compound tested at 10 μM): 2 fold
CLR MIC (AB5075 [2]; compound tested at 20 μM): 8 µg/mL
Fold Reduction of CLR MIC (AB5075 [2]; compound tested at 20 μM): 4 fold
CLR MIC (AB5075 [2]; compound tested at 30 μM): 2 µg/mL
Fold Reduction of CLR MIC (AB5075 [2]; compound tested at 30 μM): 16 fold

Cl.Nc1nc(-c2ccc(NC(=O)Nc3cc(Cl)cc(Cl)c3)cc2)c[nH]1 [Compound 20b, 1-(4-(2-amino-1H-imidazol-4-yl)phenyl)-3-(3,5-dichlorophenyl)urea hydrochloride]
MIC (AB5075 [1]; Acinetobacter baumannii): 25 µM
CLR MIC (AB5075 [2]; compound tested at 5 μM): 8 µg/mL
Fold Reduction of CLR MIC (AB5075 [2]; compound tested at 5 μM): 4 fold
CLR MIC (AB5075 [2]; compound tested at 7.5 μM): 0.5 µg/mL
Fold Reduction of CLR MIC (AB5075 [2]; compound tested at 7.5 μM): 64 fold

Cl.Nc1nc(-c2ccc(NC(=O)c3ccc(C(F)(F)F)c(F)c3)cc2)c[nH]1 [Compound 4p, N-(4-(2-amino-1H-imidazol-4-yl)phenyl)-3-fluoro-4-(trifluoromethyl)benzamide hydrochloride]
MIC (AB5075 [1]; Acinetobacter baumannii): 50 µM
CLR MIC (AB5075 [2]; compound tested at 5 μM): 16 µg/mL
CLR MIC (AB5075 [2]; compound tested at 7.5 μM): 4 µg/mL
CLR MIC (AB5075 [2]; compound tested at 10 μM): 1 µg/mL
Fold Reduction of CLR MIC (AB5075 [2]; compound tested at 10 μM): 32 fold
CLR MIC (AB5075 [2]; compound tested at 15 μM): 0.5 µg/mL

Nc1nc(-c2ccccc2NC(=O)c2cc(F)cc(F)c2)c[nH]1 [Compound 19]
adjuvant activity (CLR potentiation), rank by amide linker position (AB5075 [2]): lowest adjuvant activity

Cl.Nc1nc(-c2ccc(NC(=O)c3cc(I)c(I)c(I)c3)cc2)c[nH]1 [Compound 4w]
MIC (AB5075 [1]): >200 µM
CLR MIC (AB5075 [2]; compound tested at 30 μM): 32 µg/mL

Cl.Nc1nc(-c2ccc(NC(=O)c3c(F)c(F)c(F)c(F)c3F)cc2)c[nH]1 [Compound 4x, N-(4-(2-amino-1H-imidazol-4-yl)phenyl)-2,3,4,5,6-pentafluorobenzamide hydrochloride]
MIC (AB5075 [1]; Acinetobacter baumannii): > 200 µM
CLR MIC (AB5075 [2]; compound tested at 30 μM): 4 µg/mL

Cl.Nc1nc(-c2ccc(NC(=O)c3ccc(Cl)c(C(F)(F)F)c3)cc2F)c[nH]1 [Compound 17b, N-(4-(2-amino-1H-imidazol-4-yl)-3-fluorophenyl)-4-chloro-3-(trifluoromethyl)benzamide hydrochloride]
MIC (AB5075 [1]; Acinetobacter baumannii): 50 µM
CLR MIC (AB5075 [2]; compound tested at 7.5 μM): 8 µg/mL
Fold Reduction of CLR MIC (AB5075 [2]; compound tested at 7.5 μM): 4 fold
CLR MIC (AB5075 [2]; compound tested at 10 μM): 2 µg/mL
Fold Reduction of CLR MIC (AB5075 [2]; compound tested at 10 μM): 16 fold
CLR MIC (AB5075 [2]; compound tested at 15 μM): 0.25 µg/mL
Fold Reduction of CLR MIC (AB5075 [2]; compound tested at 15 μM): 128 fold

Cc1cc(-c2c[nH]c(N)n2)ccc1NC(=O)c1cc(Cl)cc(Cl)c1.Cl [Compound 10a, N-(4-(2-amino-1H-imidazol-4-yl)-2-methylphenyl)-3,5-dichlorobenzamide hydrochloride]
MIC (AB5075 [1]; Acinetobacter baumannii): > 200 µM
CLR MIC (AB5075 [2]; compound tested at 10 μM): 16 µg/mL
CLR MIC (AB5075 [2]; compound tested at 20 μM): 1 µg/mL
Fold Reduction of CLR MIC (AB5075 [2]; compound tested at 20 μM): 32 fold
CLR MIC (AB5075 [2]; compound tested at 30 μM): 0.5 µg/mL
Fold Reduction of CLR MIC (AB5075 [2]; compound tested at 30 μM): 64 fold

Nc1nc(-c2cccc(NC(=O)c3cc(F)cc(F)c3)c2)c[nH]1 [Compound 18]
adjuvant activity (CLR potentiation), rank by amide linker position (AB5075 [2]): 4k (highest adjuvant activity) >meta amide linker 18>ortho amide linker 19

Cl.Nc1nc(-c2ccc(NC(=O)c3ccc(C(F)(F)F)c(Cl)c3)cc2F)c[nH]1 [Compound 17a, N-(4-(2-amino-1H-imidazol-4-yl)-3-fluorophenyl)-3-chloro-4-(trifluoromethyl)benzamide hydrochloride]
MIC (AB5075 [1]; Acinetobacter baumannii): 50 µM
CLR MIC (AB5075 [2]; compound tested at 7.5 μM): 16 µg/mL
CLR MIC (AB5075 [2]; compound tested at 10 μM): 8 µg/mL
Fold Reduction of CLR MIC (AB5075 [2]; compound tested at 10 μM): 4 fold
CLR MIC (AB5075 [2]; compound tested at 15 μM): 0.25 µg/mL
Fold Reduction of CLR MIC (AB5075 [2]; compound tested at 15 μM): 128 fold

Cl.Nc1nc(-c2ccc(NC(=O)c3cc(C(F)(F)F)cc(C(F)(F)F)c3)cc2)c[nH]1 [Compound 4l]
CLR MIC (AB5075 [2]; compound tested at 15 μM): 8 µg/mL

Cl.Nc1nc(-c2ccc(NC(=O)c3cccc(Cl)c3)cc2)c[nH]1 [Compound 4d, 4-(2-Amino-3H-imidazol-4-yl)phenyl]-3-chlorobenzamide hydrochloride]
MIC (AB5075 [1]; Acinetobacter baumannii): 200 µM

Cl.Nc1nc(-c2ccc(NC(=O)c3cccc(Cl)c3)cc2)c[nH]1 [Compound 4d]
CLR MIC (AB5075 [2]; compound tested at 10 μM): 16 µg/mL
CLR MIC (AB5075 [2]; compound tested at 20 μM): 4 µg/mL

— patent US12559461B2, “Antibiotic adjuvant compounds” (UNIVERSITY OF NOTRE DAME DU LAC, priority 2020, dated 2026)
